Test results as given in patent US12042564B2, “Therapeutic solid dosage forms” (CYBIN UK LTD, priority 2020, dated 2024).
“And” between values parts separate entries of the source, which are not always exact repeats. Equal values may be shown once. Marks after values point to notes of the source that are not given here.

Key:
[1] = system: human liver mitochondrial fraction; experiment: Intrinsic clearance and half-life in human liver mitochondrial fraction; type: in vitro ADME; conditions: 0.5 mg/mL human liver mitochondrial fraction, 1 μM test compounds; for Half-life (min) Mean / Half-life (min) R3 / Half-life (min) R4: 5 μM controls; for Half-life (min) Mean: mean of replicates; for Half-life (min) R3: replicate 3; for Half-life (min) R4: replicate 4; for Half-life (min) R1: 5 μM Serotonin and Benzylamine controls, replicate 1
Text: (§1) Use of Liver Mitochondrial Fraction to Model Human Metabolism of Deuterated DMT

[2] = system: Human (mixed gender) hepatocytes; experiment: In vitro intrinsic clearance of DMT and deuterated blends in human hepatocytes; type: in vitro ADME
Procedure: Use of Human Hepatocytes to Assess the In Vitro Intrinsic Clearance of Deuterated DMT Analogue Blends Relative to DMT
To use human hepatocytes to assess the in vitro intrinsic clearance of deuterated DMT analogue blends relative to DMT.
Test compounds were mixed with the hepatocyte suspension within a 96-well plate and incubated for up to 60 minutes at 37° C. The suspension was continuously agitated. At 7 time points, small aliquots were withdrawn, and the test compound/blend concentration therein was measured by LC-MS/MS.
Intrinsic clearance and half-life values were calculated for DMT and the 6 deuterated mixtures described above.

[3] = Plasma pharmacokinetics of test compound after oral dosing in rats; conditions: for mean Cmax / Determined Concentration of test compound in plasma / Determined Concentration of test compound in plasma, Mean: rat plasma; for mean Cmax: 25 mg/kg single oral gavage; for Determined Concentration of test compound in plasma / Determined Concentration of test compound in plasma, Mean: oral dosing; for Determined Concentration of test compound in plasma: individual animal; for Determined Concentration of test compound in plasma, Mean: mean of 3 animals; for systemic exposure compared to SPL026: rat, oral (PO) dosing
[4] = Plasma IAA metabolite levels after oral dosing in rats; conditions: for Mean IAA Cmax: rat plasma IAA (semi quantified) after 25 mg/kg PO of the compound; for Mean IAA tmax: rat plasma IAA after 25 mg/kg PO of the compound; for Estimated IAA Concentration / Estimated IAA Concentration, Mean: rat plasma, PO Dose (25 mg/kg); for Estimated IAA Concentration: individual animal; for Estimated IAA Concentration, Mean: mean of animals; for IAA biosynthesis compared to SPL026: rat, PO dosing
[5] = Intrinsic clearance and half-life in human liver mitochondrial fraction; type: in vitro ADME; conditions: 0.5 mg/mL human liver mitochondrial fraction; 1 μM test compounds, 5 μM controls; mean of replicates
Text: as §1

[6] = 10 min, fumarate salt, 25 mg/kg
[7] = 15 min, fumarate salt, 25 mg/kg
[8] = 30 min, fumarate salt, 25 mg/kg
[9] = 45 min, fumarate salt, 25 mg/kg
[10] = 60 min, fumarate salt, 25 mg/kg
[11] = 120 min, fumarate salt, 25 mg/kg
[12] = 180 min, fumarate salt, 25 mg/kg

SMILES: [2H]C([2H])([2H])N(CCc1c[nH]c2ccccc12)C([2H])([2H])[2H] [SPL028vii]
- Half-life (min) Mean [1]: 10.2 min
- Half-life (min) R3 [1]: 9.4 min
- Half-life (min) R4 [1]: 10.9 min

SMILES: O=C(O)/C=C/C(=O)O.[2H]C([2H])(Cc1c[nH]c2ccccc12)N(C)C [SPL028i, (96.6%) α,α,-dideutero-N,N-dimethyltryptamine fumarate salt]
- half-life compared to undeuterated-DMT [2]: nearly doubling
- intrinsic clearance rate compared to undeuterated-DMT [2]: almost halved
- mean Cmax [3]: 54.3 ng/mL
- Determined Concentration of test compound in plasma ([3]; 1 min): BLQ (Below the lower limit of quantification 0.310 ng/mL)
- Determined Concentration of test compound in plasma, Mean ([3]; 1 min): BLQ (Below the lower limit of quantification 0.310 ng/mL)
- Determined Concentration of test compound in plasma ([3]; 5 min, fumarate salt): 0.865 ng/mL and 5.85 ng/mL and 0.688 ng/mL
- Determined Concentration of test compound in plasma, Mean ([3]; 5 min): 2.5 ng/mL
- Determined Concentration of test compound in plasma ([3]; 10 min, fumarate salt): 2.42 ng/mL and 49.2 ng/mL and 6.72 ng/mL
- Determined Concentration of test compound in plasma, Mean ([3]; 10 min): 19.4 ng/mL
- Determined Concentration of test compound in plasma ([3]; 15 min, fumarate salt): 7.46 ng/mL and 34.3 ng/mL and 19.0 ng/mL
- Determined Concentration of test compound in plasma, Mean ([3]; 15 min): 20.3 ng/mL
- Determined Concentration of test compound in plasma ([3]; 30 min, fumarate salt): 22.6 ng/mL (2×) and 46.4 ng/mL
- Determined Concentration of test compound in plasma, Mean ([3]; 30 min): 30.5 ng/mL
- Determined Concentration of test compound in plasma ([3]; 45 min, fumarate salt): 22.6 ng/mL and 33.1 ng/mL and 43.7 ng/mL
- Determined Concentration of test compound in plasma, Mean ([3]; 45 min): 33.1 ng/mL
- Determined Concentration of test compound in plasma ([3]; 60 min, fumarate salt): 30.5 ng/mL and 32.1 ng/mL and 53.1 ng/mL
- Determined Concentration of test compound in plasma, Mean ([3]; 60 min): 38.6 ng/mL
- Determined Concentration of test compound in plasma ([3]; 120 min, fumarate salt): 38.0 ng/mL and 18.7 ng/mL and 49.3 ng/mL
- Determined Concentration of test compound in plasma, Mean ([3]; 120 min): 35.3 ng/mL
- Determined Concentration of test compound in plasma ([3]; Predose): BLQ (Below the lower limit of quantification 0.310 ng/mL)
- Determined Concentration of test compound in plasma, Mean ([3]; Predose): BLQ (Below the lower limit of quantification 0.310 ng/mL)
- systemic exposure compared to SPL026 [3]: increased systemic exposure
- Mean IAA Cmax ([4]; fumarate salt): 2.933 ng/mL and 2.993 ng/mL
- Mean IAA tmax [4]: 45 min
- Estimated IAA Concentration ([4]; 1 min): BLQ
- Estimated IAA Concentration, Mean ([4]; 1 min): BLQ
- Estimated IAA Concentration ([4]; 5 min, fumarate salt, 25 mg/kg): 0.523 ng/mL and 0.874 ng/mL and 0.503 ng/mL
- Estimated IAA Concentration, Mean ([4]; 5 min): 0.633 ng/mL
- Estimated IAA Concentration [4, 6]: 1.24 ng/mL and 1.84 ng/mL and 1.34 ng/mL
- Estimated IAA Concentration, Mean ([4]; 10 min): 1.473 ng/mL
- Estimated IAA Concentration [4, 7]: 2.41 ng/mL and 0.749 ng/mL and 1.97 ng/mL
- Estimated IAA Concentration, Mean ([4]; 15 min): 1.709 ng/mL
- Estimated IAA Concentration [4, 8]: 3.53 ng/mL and 2.10 ng/mL and 2.18 ng/mL
- Estimated IAA Concentration, Mean ([4]; 30 min): 2.606 ng/mL
- Estimated IAA Concentration [4, 9]: 4.67 ng/mL and 1.95 ng/mL and 2.35 ng/mL
- Estimated IAA Concentration, Mean ([4]; 45 min): 2.993 ng/mL
- Estimated IAA Concentration [4, 10]: 2.78 ng/mL and 1.59 ng/mL and 1.50 ng/mL
- Estimated IAA Concentration, Mean ([4]; 60 min): 1.955 ng/mL
- Estimated IAA Concentration [4, 11]: 2.94 ng/mL and 1.42 ng/mL and 1.81 ng/mL
- Estimated IAA Concentration, Mean ([4]; 120 min): 2.055 ng/mL
- Estimated IAA Concentration [4, 12]: 2.09 ng/mL and 0.898 ng/mL and 1.45 ng/mL
- Estimated IAA Concentration, Mean ([4]; 180 min): 1.480 ng/mL
- Estimated IAA Concentration ([4]; Predose): BLQ
- Estimated IAA Concentration, Mean ([4]; Predose): BLQ
- IAA biosynthesis compared to SPL026 [4]: significant decrease
- Half-life (min) R1 [1]: 86.1 min
- Half-life (min) Mean [1]: 85.0 min
- Half-life (min) R3 [1]: 82.6 min
- Half-life (min) R4 [1]: 72.1 min

SMILES: NCCc1c[nH]c2ccc(O)cc12 [Serotonin, reference compound]
- Half-life (min) R1 [1]: 9.3 min
- Half-life (min) R3 [1]: 9.1 min
- Half-life (min) R4 [1]: 8.5 min
- half-life at 5 μM [5]: 9 min

SMILES: NCc1ccccc1 [Benzylamine, reference compound]
- Half-life (min) R1 [1]: 24.3 min
- Half-life (min) R3 [1]: 21.2 min
- Half-life (min) R4 [1]: 23.5 min
- half-life at 5 μM [5]: 22.8 min

SMILES: O=C(O)/C=C/C(=O)O.[2H]C([2H])([2H])N(C([2H])([2H])[2H])C([2H])([2H])Cc1c[nH]c2ccccc12 [SPL028viii, (96.7%) α,α,-dideutero-N,N-bis-trideutero-dimethyltryptamine fumarate salt]
- mean Cmax [3]: 40.77 ng/mL
- Determined Concentration of test compound in plasma ([3]; 1 min, fumarate salt): 19.8 ng/mL and BLQ (Below the lower limit of quantification 0.310 ng/mL) (2×)
- Determined Concentration of test compound in plasma, Mean ([3]; 1 min): <6.8 ng/mL
- Determined Concentration of test compound in plasma ([3]; 5 min, fumarate salt): 14.9 ng/mL and 3.11 ng/mL and 0.506 ng/mL
- Determined Concentration of test compound in plasma, Mean ([3]; 5 min): 6.2 ng/mL
- Determined Concentration of test compound in plasma ([3]; 10 min, fumarate salt): 18.0 ng/mL and 13.7 ng/mL and 11.8 ng/mL
- Determined Concentration of test compound in plasma, Mean ([3]; 10 min): 14.5 ng/mL
- Determined Concentration of test compound in plasma ([3]; 15 min, fumarate salt): 20.5 ng/mL and 20.3 ng/mL and 36.2 ng/mL
- Determined Concentration of test compound in plasma, Mean ([3]; 15 min): 25.7 ng/mL
- Determined Concentration of test compound in plasma ([3]; 30 min, fumarate salt): 9.08 ng/mL and 23.0 ng/mL and 35.7 ng/mL
- Determined Concentration of test compound in plasma, Mean ([3]; 30 min): 22.6 ng/mL
- Determined Concentration of test compound in plasma ([3]; 45 min, fumarate salt): 5.90 ng/mL and 21.7 ng/mL and 40.0 ng/mL
- Determined Concentration of test compound in plasma, Mean ([3]; 45 min): 22.5 ng/mL
- Determined Concentration of test compound in plasma ([3]; 60 min, fumarate salt): 4.43 ng/mL and 30.5 ng/mL and 62.0 ng/mL
- Determined Concentration of test compound in plasma, Mean ([3]; 60 min): 32.3 ng/mL
- Determined Concentration of test compound in plasma ([3]; 120 min, fumarate salt): 13.5 ng/mL and 31.6 ng/mL and 63.8 ng/mL
- Determined Concentration of test compound in plasma, Mean ([3]; 120 min): 36.3 ng/mL
- Determined Concentration of test compound in plasma ([3]; Predose): BLQ (Below the lower limit of quantification 0.310 ng/mL)
- Determined Concentration of test compound in plasma, Mean ([3]; Predose): BLQ (Below the lower limit of quantification 0.310 ng/mL)
- systemic exposure compared to SPL026 [3]: increased systemic exposure
- Mean IAA Cmax [4]: 0.827 ng/mL
- Mean IAA tmax [4]: 60 min
- Estimated IAA Concentration ([4]; 1 min): BLQ
- Estimated IAA Concentration, Mean ([4]; 1 min): BLQ
- Estimated IAA Concentration ([4]; 5 min, fumarate salt, 25 mg/kg): BLQ (2×) and 0.223 ng/mL
- Estimated IAA Concentration, Mean ([4]; 5 min): <0.281 ng/mL
- Estimated IAA Concentration [4, 6]: BLQ (2×) and 0.430 ng/mL
- Estimated IAA Concentration, Mean ([4]; 10 min): <0.350 ng/mL
- Estimated IAA Concentration [4, 7]: BLQ (2×) and 0.846 ng/mL
- Estimated IAA Concentration, Mean ([4]; 15 min): <0.489 ng/mL
- Estimated IAA Concentration [4, 8]: BLQ (2×) and 1.04 ng/mL
- Estimated IAA Concentration, Mean ([4]; 30 min): <0.544 ng/mL
- Estimated IAA Concentration [4, 9]: 0.347 ng/mL and 0.821 ng/mL and 1.0 ng/mL
- Estimated IAA Concentration, Mean ([4]; 45 min): 0.733 ng/mL
- Estimated IAA Concentration [4, 10]: BLQ and 0.772 ng/mL and 0.883 ng/mL
- Estimated IAA Concentration, Mean ([4]; 60 min): 0.827 ng/mL
- Estimated IAA Concentration [4, 11]: BLQ and 0.516 ng/mL and 0.747 ng/mL
- Estimated IAA Concentration, Mean ([4]; 120 min): 0.631 ng/mL
- Estimated IAA Concentration [4, 12]: BLQ and 0.747 ng/mL and 0.673 ng/mL
- Estimated IAA Concentration, Mean ([4]; 180 min): 0.710 ng/mL
- Estimated IAA Concentration ([4]; Predose): BLQ
- Estimated IAA Concentration, Mean ([4]; Predose): BLQ
- IAA biosynthesis compared to SPL026 [4]: significant decrease
- Half-life (min) R3 [1]: 92.9 min
- Half-life (min) R4 [1]: 131.5† min
